Source: patent US10376520B2, “Methods for the treatment of cardiovascular disorders” (Galapagos NV, priority 2015, dated 2019)

Test system: Subjects With Active Crohn's Disease
Assay: LDL determination, Study 5 (Crohn's disease)
Type: in vivo, human
Conditions: for [LDL] Mean CFB - 10 weeks results / [LDL] Median CFB - 10 weeks results / [LDL] Mean CFB: 200 mg q.d.; for [LDL] Mean CFB: Study 5 10 weeks results
Source text: Double-Blind, Randomized, Placebo-Controlled, Multi-Centre Study to Investigate the Efficacy and Safety of Compound 1 in Subjects With Active Crohn's Disease With Evidence of Mucosal Ulceration.
This is a double-blind, randomized, placebo-controlled, multi-centre Phase 2 study to investigate the efficacy and safety of Compound 1 administered once daily for the treatment of active CD with evidence of mucosal ulceration. The pharmacokinetics (including a PK substudy) and pharmacodynamics of Compound 1 and metabolite in CD will also be characterised.
A total of 180 eligible subjects will be randomized to receive Compound 1 or placebo in addition to their stable background treatment (eg, corticosteroids, aminosalicylates, or CD-related antibiotics). The study will consist of 2 parts, with total treatment duration of 20 weeks. Randomization in Part 1 will be stratified according the subject's previous anti-TNF exposure/response, CRP level at Screening, and oral corticosteroid use at visit Day −1.
After the first 10 weeks of treatment in Part 1, patients will be re-randomized for Part 2 as shown in the diagram below and will be stratified according to the subject's clinical response, previous anti-TNF exposure/response, and oral corticosteroid use at visit Day −1.
The following assays were conducted at Eurofins Global Central Laboratory, Bergschot 71, 4817 PA Breda, The Netherlands, and at Quest Diagnostics, Clinical Trials, Quest House, 125-135 Staines Road, Hounslow, Middlesex, TW3 3JB, United Kingdom. The assays for Study 5 were performed at BARC Europe, 3B, Industrie Park, Zwijnaarde, B-9052 Ghent, Belgium.
The determination of [LDL]-cholesterol is made using an automated method taking advantage of the selective micellary solubilization of [LDL]-cholesterol by a nonionic detergent and the interaction of a sugar compound and lipoproteins (VLDL and chylomicrons).
When a detergent is included in the enzymatic method for cholesterol determination (cholesterol esterase, cholesterol oxidase coupling reaction), the relative reactivities of cholesterol in the lipoprotein fractions increase in this order: [HDL]<chylomicrons <VLDL <[LDL]. In the presence of Mg^2+, a sugar compound markedly reduces the enzymatic reaction of the cholesterol measurement in VLDL and chylomicrons. The combination of a sugar compound with detergent enables the selective determination of [LDL]-cholesterol in serum. (Friedewald et al., 1972; Rifai et al., 1992)
Homogeneous enzymatic colorimetric assay.
In the presence of peroxidase, the hydrogen peroxide generated reacts with 4-aminoantipyrine and Sodium N-(2-hydroxy-3-sulfopropyl)-3,5-dimethoxyaniline (HSDA) to form a purple-blue dye.
The color intensity of this dye is directly proportional to the cholesterol concentration and is measured photometrically.
Human serum and plasma samples [LDL] determination was done on a Roche/Hitachi Cobas c 701/702 system which automatically calculate the analyte concentration of each sample. Samples containing precipitates are centrifuged before performing the assay.

[1] = 200 mg q.d. week 0 to 10, to 100 mg q.d. week 10 to 20, week 16
[2] = 200 mg q.d. week 0 to 10, to 100 mg q.d. week 10 to 20, week 20
[3] = 200 mg q.d. week 0 to 10, to placebo week 10 to 20, week 2
[4] = 200 mg q.d. week 0 to 10, to placebo week 10 to 20, week 4
[5] = 200 mg q.d. week 0 to 10, to placebo week 10 to 20, week 6
[6] = 200 mg q.d. week 0 to 10, to placebo week 10 to 20, week 10
[7] = 200 mg q.d. week 0 to 10, to placebo week 10 to 20, week 12
[8] = 200 mg q.d. week 0 to 10, to placebo week 10 to 20, week 16
[9] = 200 mg q.d. week 0 to 10, to placebo week 10 to 20, week 20
[10] = continued 200 mg q.d. (N = 77), week 2
[11] = continued 200 mg q.d. (N = 77), week 4
[12] = continued 200 mg q.d. (N = 77), week 6
[13] = continued 200 mg q.d. (N = 77), week 10
[14] = continued 200 mg q.d. (N = 77), week 12
[15] = continued 200 mg q.d. (N = 77), week 16
[16] = continued 200 mg q.d. (N = 77), week 20
[17] = placebo week 0 to 10, then 100 mg q.d. (N = 22), week 12
[18] = placebo week 0 to 10, then 100 mg q.d. (N = 22), week 16
[19] = placebo week 0 to 10, then 100 mg q.d. (N = 22), week 20
[20] = placebo week 0 to 10, to 100 mg q.d. week 10 to 20, week 12
[21] = placebo week 0 to 10, to 100 mg q.d. week 10 to 20, week 16
[22] = placebo week 0 to 10, to 100 mg q.d. week 10 to 20, week 20

O=C(Nc1nc2cccc(-c3ccc(CN4CCS(=O)(=O)CC4)cc3)n2n1)C1CC1 [Compound 1, cyclopropanecarboxylic acid {5-[4-(1,1-dioxo-thiomorpholin-4-ylmethyl)-phenyl]-[1,2,4]triazolo[1,5-a]pyridin-2yl}-amide]
[LDL] Mean CFB - 20 weeks results [1]: 2.18% | [LDL] Median CFB - 20 weeks results [1]: −1.36% | [LDL] Mean CFB - 20 weeks results [2]: 2.73% | [LDL] Median CFB - 20 weeks results [2]: 1.65% | [LDL] Mean CFB - 20 weeks results [3]: 2.69% | [LDL] Median CFB - 20 weeks results [3]: 0.71% | [LDL] Mean CFB - 20 weeks results [4]: 1.85% | [LDL] Median CFB - 20 weeks results [4]: 2.44% | [LDL] Mean CFB - 20 weeks results [5]: 3.72% | [LDL] Median CFB - 20 weeks results [5]: 3.51% | [LDL] Mean CFB - 20 weeks results [6]: 4.43% | [LDL] Median CFB - 20 weeks results [6]: 1.84% | [LDL] Mean CFB - 20 weeks results [7]: 4.55% | [LDL] Median CFB - 20 weeks results [7]: 6.33% | [LDL] Mean CFB - 20 weeks results [8]: 10.32% | [LDL] Median CFB - 20 weeks results [8]: 6.34% | [LDL] Mean CFB - 20 weeks results [9]: 6.12% | [LDL] Median CFB - 20 weeks results [9]: 5.24% | [LDL] Mean CFB - 10 weeks results (week 2): 2.833% | [LDL] Median CFB - 10 weeks results (week 2): −1.469% | [LDL] Mean CFB - 10 weeks results (week 4): 1.997% | [LDL] Median CFB - 10 weeks results (week 4): −1.986% | [LDL] Mean CFB - 10 weeks results (week 6): 1.743% | [LDL] Median CFB - 10 weeks results (week 6): 0.992% | [LDL] Mean CFB - 10 weeks results (week 10): 10.126% | [LDL] Median CFB - 10 weeks results (week 10): 6.299% | [LDL] Mean CFB (week 2): 0.025 mmol/L | [LDL] Mean CFB (week 4): -0.030 mmol/L | [LDL] Mean CFB (week 6): -0.012 mmol/L | [LDL] Mean CFB (week 10): 0.150 mmol/L | [LDL] Mean CFB - 20 weeks results [10]: 0.04 mmol/L | [LDL] Median CFB - 10 weeks results 20 weeks results [10]: -0.05 mmol/L | [LDL] Mean CFB - 20 weeks results [11]: -0.05 mmol/L | [LDL] Median CFB - 10 weeks results 20 weeks results [11]: -0.05 mmol/L | [LDL] Mean CFB - 20 weeks results [12]: -0.05 mmol/L | [LDL] Median CFB - 10 weeks results 20 weeks results [12]: -0.02 mmol/L | [LDL] Mean CFB - 20 weeks results [13]: 0.20 mmol/L | [LDL] Median CFB - 10 weeks results 20 weeks results [13]: 0.18 mmol/L | [LDL] Mean CFB - 20 weeks results [14]: 0.14 mmol/L | [LDL] Median CFB - 10 weeks results 20 weeks results [14]: 0.15 mmol/L | [LDL] Mean CFB - 20 weeks results [15]: 0.21 mmol/L | [LDL] Median CFB - 10 weeks results 20 weeks results [15]: 0.19 mmol/L | [LDL] Mean CFB - 20 weeks results [16]: 0.22 mmol/L | [LDL] Median CFB - 10 weeks results 20 weeks results [16]: 0.18 mmol/L | [LDL] Mean CFB - 20 weeks results [17]: 0.09 mmol/L | [LDL] Median CFB - 10 weeks results 20 weeks results [17]: 0.07 mmol/L | [LDL] Mean CFB - 20 weeks results [18]: 0.05 mmol/L | [LDL] Median CFB - 10 weeks results 20 weeks results [18]: -0.06 mmol/L | [LDL] Mean CFB - 20 weeks results [19]: 0.06 mmol/L | [LDL] Median CFB - 10 weeks results 20 weeks results [19]: 0.03 mmol/L | [LDL] Mean CFB - 20 weeks results [20]: 4.07% | [LDL] Median CFB - 20 weeks results [20]: 2.14% | [LDL] Mean CFB - 20 weeks results [21]: 5.28% | [LDL] Median CFB - 20 weeks results [21]: −2.00% | [LDL] Mean CFB - 20 weeks results [22]: 7.29% | [LDL] Median CFB - 20 weeks results [22]: 1.90%
